Measurements: patent US20230123334A1, “AMINO LIPID COMPOUND, PREPARATION METHOD THEREFOR, AND APPLICATION THEREOF” (SHENZHEN SHENXIN BIOTECHNOLOGY CO., LTD., priority 2020, published 2023)

Assays:
HEK293 cells [1] = assay: Preliminary screening as mRNA vectors, EGFP mRNA transfection of HEK293 cells; format: cell-based; settings: HEK293 cells, 96-well plates, EGFP mRNA 50 ng per well; percentage of GFP fluorescent cells relative to total number of cells (Hoechst)
Summary of the method: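 Each well of HEK293 cells received 50 ng of EGFP mRNA. Efficiency was expressed as percent GFP-expressing cells over Hoechst-defined total cell number.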

HEK293 cells [2] = assay: Preliminary screening as DNA vectors, GFP transfection of HEK293 cells; format: cell-based; settings: HEK293 cells; lipid/DOPE liposome with 75 ng plasmid DNA (psin-EGFP-IRES-Puro); number of cells expressing GFP divided by total number of nuclei (Hoechst)
Summary of the method: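 Lipid + DOPE liposomes (NaOAc, pH 5.6) complexed w/ 75 ng psin-EGFP-IRES-Puro, 30 min RT; added to 3-5×10^4 HEK293/well, 37° C. Hoechst 0.2 μg/mL at 20-24 h, imaged after further 20-24 h. Efficiency = GFP+ cells / total nuclei.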

Row | Compound | Absolute mRNA transfection efficiency in HEK293 cells (HEK293 cells [1]) | Absolute DNA transfection efficiency in HEK293 cells (HEK293 cells [2])
1 | CCCCCCCCNc1nc(NCCCCCC)nc(NCCN(CC)CC)n1 [Compound N6N8D7] | 0.1% | 0.0%
2 | CCCCCCCCNc1nc(NCCCCCC)nc(NCCCN2CCOCC2)n1 [Compound N6N8D8] | 0.0% | 0.0%
3 | CCCCCCCCNc1nc(NCCCCCC)nc(NCCCN2CCN(C)CC2)n1 [Compound N6N8D9] | 0.0% | 0.0%
4 | CCCCCCCCNc1nc(NCCCCCC)nc(NCC2CCN(C)CC2)n1 [Compound N6N8D10] | 0.0% | 0.0%
5 | CCCCCCCCCNc1nc(NCCCCCC)nc(NCCN(C)C)n1 [Compound N6N9D1] | 0.0% | 0.0%
6 | CCCCCCCCCNc1nc(NCCCCCC)nc(NCCN2CCOCC2)n1 [Compound N6N9D2] | 0.0% | 0.0%
7 | CCCCCCCCCNc1nc(NCCCCCC)nc(NCCN2CCCC2)n1 [Compound N6N9D3] | 0.4% | 0.3%
8 | CCCCCCCCCNc1nc(NCCCCCC)nc(NCCN2CCCCC2)n1 [Compound N6N9D4] | 0.3% | 0.0%
9 | CCCCCCCCCNc1nc(NCCCCCC)nc(NCCN2CCN(C)CC2)n1 [Compound N6N9D5] | 0.1% | 0.0%
10 | CCCCCCCCCNc1nc(NCCCCCC)nc(NCCCN(C)C)n1 [Compound N6N9D6] | 0.2% | 0.0%
11 | CCCCCCCCCNc1nc(NCCCCCC)nc(NCCN(CC)CC)n1 [Compound N6N9D7] | 0.0% | 0.0%
12 | CCCCCCCCCNc1nc(NCCCCCC)nc(NCCCN2CCOCC2)n1 [Compound N6N9D8] | 0.0% | 0.0%
13 | CCCCCCCCCNc1nc(NCCCCCC)nc(NCCCN2CCN(C)CC2)n1 [Compound N6N9D9] | 0.0% | 0.0%
14 | CCCCCCCCCNc1nc(NCCCCCC)nc(NCC2CCN(C)CC2)n1 [Compound N6N9D10] | 0.3% | 0.0%
15 | CCCCCCCCCCCNc1nc(NCCCCCC)nc(NCCN(C)C)n1 [Compound N6N11D1] | 0.1% | 0.0%
16 | CCCCCCCCCCCNc1nc(NCCCCCC)nc(NCCN2CCOCC2)n1 [Compound N6N11D2] | 0.0% | 0.0%
17 | CCCCCCCCCCCNc1nc(NCCCCCC)nc(NCCN2CCCC2)n1 [Compound N6N11D3] | 0.9% | 0.3%
18 | CCCCCCCCCCCNc1nc(NCCCCCC)nc(NCCN2CCCCC2)n1 [Compound N6N11D4] | 0.0% | 0.0%
19 | CCCCCCCCCCCNc1nc(NCCCCCC)nc(NCCN2CCN(C)CC2)n1 [Compound N6N11D5] | 0.5% | 0.1%
20 | CCCCCCCCCCCNc1nc(NCCCCCC)nc(NCCCN(C)C)n1 [Compound N6N11D6] | 0.0% | 0.2%

Row | Compound | Absolute mRNA transfection efficiency in HEK293 cells (HEK293 cells [1]) | Absolute DNA transfection efficiency in HEK293 cells (HEK293 cells [2])
21 | CCCCCCCCCCCNc1nc(NCCCCCC)nc(NCCN(CC)CC)n1 [Compound N6N11D7] | 0.0% | 0.0%
22 | CCCCCCCCCCCNc1nc(NCCCCCC)nc(NCCCN2CCOCC2)n1 [Compound N6N11D8] | 0.1% | 0.0%
23 | CCCCCCCCCCCNc1nc(NN)nc(NCCCN2CCN(C)CC2)n1 [Compound N6N11D9] | 0.0% | 0.0%
24 | CCCCCCCCCCCNc1nc(NCCCCCC)nc(NCC2CCN(C)CC2)n1 [Compound N6N11D10] | 0.0% | 0.0%
25 | CCCCCCCCCCCCNc1nc(NCCCCCC)nc(NCCN(C)C)n1 [Compound N6N12D1] | 0.2% | 0.0%
26 | CCCCCCCCCCCCNc1nc(NCCCCCC)nc(NCCN2CCOCC2)n1 [Compound N6N12D2] | 0.0% | 0.0%
27 | CCCCCCCCCCCCNc1nc(NCCCCCC)nc(NCCN2CCCC2)n1 [Compound N6N12D3] | 0.5% | 0.2%
28 | CCCCCCCCCCCCNc1nc(NCCCCCC)nc(NCCN2CCCCC2)n1 [Compound N6N12D4] | 0.0% | 0.0%
29 | CCCCCCCCCCCCNc1nc(NCCCCCC)nc(NCCN2CCN(C)CC2)n1 [Compound N6N12D5] | 0.0% | 0.1%
30 | CCCCCCCCCCCCNc1nc(NCCCCCC)nc(NCCCN(C)C)n1 [Compound N6N12D6] | 0.1% | 0.3%
31 | CCCCCCCCCCCCNc1nc(NCCCCCC)nc(NCCN(CC)CC)n1 [Compound N6N12D7] | 0.0% | 0.0%
32 | CCCCCCCCCCCCNc1nc(NCCCCCC)nc(NCCCN2CCOCC2)n1 [Compound N6N12D8] | 0.1% | 0.0%
33 | CCCCCCCCCCCCNc1nc(NCCCCCC)nc(NCCCN2CCN(C)CC2)n1 [Compound N6N12D9] | 0.0% | 0.0%
34 | CCCCCCCCCCCCNc1nc(NCCCCCC)nc(NCC2CCN(C)CC2)n1 [Compound N6N12D10] | 0.0% | 0.2%
35 | CCCCCCCCCCCCCNc1nc(NCCCCCC)nc(NCCN(C)C)n1 [Compound N6N13D1] | 0.0% | 0.0%
36 | CCCCCCCCCCCCCNc1nc(NCCCCCC)nc(NCCN2CCOCC2)n1 [Compound N6N13D2] | 0.0% | 0.0%
37 | CCCCCCCCCCCCCNc1nc(NCCCCCC)nc(NCCN2CCCC2)n1 [Compound N6N13D3] | 1.0% | 0.5%
38 | CCCCCCCCCCCCCNc1nc(NCCCCCC)nc(NCCN2CCCCC2)n1 [Compound N6N13D4] | 0.6% | 0.0%
39 | CCCCCCCCCCCCCNc1nc(NCCCCCC)nc(NCCN2CCN(C)CC2)n1 [Compound N6N13D5] | 0.0% | 0.0%
